Data as given in US20160368992A1, “A METHOD OF INCREASING GIPCR SIGNALIZATION IN THE CELLS OF A SCOLIOTIC SUBJECT” (CHU SAINTE-JUSTINE, priority 2013, published 2016).
Entries after “also recorded” stand apart in the source; their conditions may differ. Where two headings read alike, the source gives them in different places. One block for each compound: values may come before it.

How the values were obtained:
Gi1, Gi2, Gi3 proteins = test: Immunoprecipitation/Western blot: phosphorylation of Gi proteins in MC3T3-E1 cells; assay type: cell-based; details: MC3T3-E1 treated with rOPN in presence of kinase inhibitor
Experimental: Given that the defective GiPCR signaling associated with idiopathic scoliosis has causatively been related to increased phosphorylation of Gi proteins (Moreau et al., 2004), it was of interest to examined whether OPN influences the phosphorylation status of Gi proteins. Accordingly, MC3T3-E1 cells were treated with rOPN, then cell lysates were immunoprecipitated with antibodies against Gi1, Gi2 or Gi3 protein isoforms, and the phosphorylation level was examined by Western blot using anti-phospho serine/threonine or anti-tyrosine antibodies. […] However, band density was higher in OPN-treated cells.
To support the involvement of α5β1 integrin in this process, cells were pre-treated with antibody against α5β1 integrin prior to rOPN treatment.
Cell extracts prepared from MC3T3-E1 that had been treated with rOPN in the presence or absence of an inhibitor specific for each kinase were subjected to immunoprecipitation and Western blot analysis. […] However, both serine and tyrosine phosphorylation were attenuated by inhibitors of FAK (FAK inhibitor-14), Scr (PP2), CaMKII (KN93), PI3K (wortmannin-data not shown), MEK (PD98059), ERK1/2 (FR180204), JNK (SP60125) and P38 (SB203580).

GiPCR signaling [1] = test: CDS integrated response to GiPCR ligands in MC3T3-E1 osteoblastic cell line; assay type: cell-based; details: for response in the presence of rOPN after siRNA transfection: MC3T3-E1, compared with untreated cells
Experimental: The functional evaluation of Gi, Gs and Gq proteins was assessed by CDS assays using osteoblasts cells derived from C57Bl/6j WT and C57Bl/6j OPN^−/− mice (bipedal and quadrupedal) using CellKey™ apparatus, as previously described (Akoume et al., 2010, and WO 2010/040234 to Moreau et al.).
MC3T3-E1 cells were used to check the effect of the knockdown of OPN and its receptors. MC3T3-E1 osteoblasts cells were transiently transfected in serum-free medium, using Lipofectamine™ RNAiMAX reagent (Invitrogen) according to the manufacturer's instructions and functional experiments were performed 48 h post transfection. The sequence of RNA oligonucleotides used for the knockdown of different genes are, ssp1 (encodes OPN) (CCACAGCCACAAGCAGUCCAGAUUA (SEQ ID NO: 9)), integrin β1 (CCUAAGUCAGCAGUAGGAACAUUAU (SEQ ID NO: 10)), integrin β3 (CCUCCAGCUCAUUGUUGAUGCUUAU (SEQ ID NO: 11)), integrin α5 (CCGAGUACCUGAUCAACCUGGUUCA (SEQ ID NO: 12)), integrin α8 (GAGAUGAAACUGAAUUCCGAGAUAA (SEQ ID NO: 13)), integrin αv (GACUGUUGAGUAUGCUCCAUGUAGA (SEQ ID NO: 14 and CD44 (GAACAAGGAGUCGUCAGAAACUCCA (SEQ ID NO: 15)). Two other siRNAs against integrin α5 were tested (UCCACCAUGUCUAUGAGCUCAUCAA (SEQ ID NO:16) and UCAGGAGCAGAUUGCAGAAUCUUAU (SEQ ID NO:17)).
To further investigate the role of OPN in Gi protein-mediated receptor signaling, several lines of experiments were performed using MC3T3-E1 osteoblastic cell line. Since these cells express OPN, was first examined whether depletion of OPN by siRNA influences the capacity of GiPCR ligands to induce cell signaling as measured by CDS in MC3T3-E1 cells. […] Similar results were obtained when cells were stimulated with oxymethazolin. […] To confirm this hypothesis, cells were treated with exogenous recombinant OPN (rOPN) prior to DAMGO and oxymethazolin stimulation.

GsPCR signaling = test: CDS response to GsPCR stimulation (isoproterenol, desmopressin) in MC3T3-E1 cells; assay type: cell-based; details: rOPN in combination with Src inhibitor; isoproterenol, similar with desmopressin
Text: Taken into account these considerations and having observed that genetic deletion of OPN inversely influenced response to Gi and Gs stimulation (FIG. 1), it was of interest to examine the effect of OPN on the functional and phosphorylation status of Gs protein and on its interaction with receptors. For this purpose, cells were subjected to isoproterenol and desmopressin in the presence of rOPN or PBS. As expected, response to isoproterenol was higher in rOPN than in PBS-treated cells.
Assuming that inhibition of Gi protein and phosphorylation of Gs protein are responsible for the increased GsPCR signaling associated with rOPN, the next experiments aimed to determine the contribution of each parameter. For this purpose, cells were treated with PTX to mimic disruption action of rOPN and compared to cells treated with rOPN alone or in combination with Src inhibitor (PP2) to prevent tyrosine phosphorylation. […] This modest difference was abolished by Src inhibitor (PP2). Similar observations were noted when cells were stimulated with desmopressin.

[2] = molecular target: RGD-dependent integrins expressed in osteoblasts; test: cell-based or functional assay
GiPCR signaling [3] = test: CDS (CellKey) functional evaluation of Gi protein-mediated receptor signaling in primary mouse osteoblasts; assay type: cell-based, mice
[4] = osteoblasts from WT and OPN-/- mice, increasing agonist concentration

Compound: COc1ccc(S(=O)(=O)N(CCO)c2ccccc2CN(C)C/C=C/c2ccc(Cl)cc2)cc1 [KN93]
level of serine phosphorylation in the Gi protein precipitates (Gi1, Gi2, Gi3 proteins): attenuated
tyrosine phosphorylation levels in the Gi protein precipitates (Gi1, Gi2, Gi3 proteins): attenuated

Compound: α5 siRNA: siRNA against integrin α5: CCGAGUACCUGAUCAACCUGGUUCA; two others (SEQ ID NO:16, 17) also tested (guide CCGAGUACCUGAUCAACCUGGUUCA; listed as RNA, chemistry not given here)
response in the presence of rOPN after siRNA transfection (GiPCR signaling [1]): high response

Compound: OPN siRNA: siRNA for knockdown of ssp1 (encodes OPN): CCACAGCCACAAGCAGUCCAGAUUA
integrated response to DAMGO and oxymethazolin (GiPCR signaling [1]; MC3T3-E1 cells, endogenous OPN depleted or blocked, no exogenous rOPN): significantly greater

Compound: COc1cccc(-c2cc(=O)c3ccccc3o2)c1N [PD98059]
level of serine phosphorylation in the Gi protein precipitates (Gi1, Gi2, Gi3 proteins): attenuated
tyrosine phosphorylation levels in the Gi protein precipitates (Gi1, Gi2, Gi3 proteins): attenuated

Compound: Nc1cc(N)c(N)cc1N [FAK inhibitor-14]
level of serine phosphorylation in the Gi protein precipitates (Gi1, Gi2, Gi3 proteins): attenuated
tyrosine phosphorylation levels in the Gi protein precipitates (Gi1, Gi2, Gi3 proteins): attenuated

Compound: CC(C)(C)n1nc(-c2ccc(Cl)cc2)c2c(N)ncnc21 [PP2]
level of serine phosphorylation in the Gi protein precipitates (Gi1, Gi2, Gi3 proteins): attenuated
tyrosine phosphorylation levels in the Gi protein precipitates (Gi1, Gi2, Gi3 proteins): attenuated
difference in response between rOPN-treated and PTX-treated cells (GsPCR signaling): abolished

RGD concentration reversing the inhibitory effect of OPN on response to DAMGO and oxymethazolin (CDS) [2]: > 10 µg/mL
Compound: RGD peptide

Compound: apelin
response to GiPCR agonist (GiPCR signaling [3]): concentration-dependent increase of response

Compound: β1 siRNA: siRNA against integrin β1: CCUAAGUCAGCAGUAGGAACAUUAU (guide CCUAAGUCAGCAGUAGGAACAUUAU; listed as RNA, chemistry not given here)
response in the presence of rOPN after siRNA transfection (GiPCR signaling [1]): high response

Compound: hyaluronic acid [HA]
sensitivity of GiPCR signaling to CD44 inhibition (GiPCR signaling [3]; CD44-/- osteoblasts): does not show any sensitivity
GiPCR signaling defects (GiPCR signaling [3]; wild type osteoblasts, compared to the control): exacerbated
GiPCR signaling defect / inhibitory effect of OPN when CD44 is inhibited (GiPCR signaling [3]; wild type osteoblasts, in presence of rOPN): intensified; also recorded: exacerbate the signaling defect

Compound: COc1ccc2c(c1)c(C1=C(c3c[nH]c4ccccc34)C(=O)NC1=O)cn2CCCN(C)C [Gö6983]
level of serine phosphorylation in the Gi protein precipitates (Gi1, Gi2, Gi3 proteins): attenuated
tyrosine phosphorylation levels in the Gi protein precipitates (Gi1, Gi2, Gi3 proteins): without effect

Compound: C[C@@H](NC(=O)[C@@H](N)Cc1ccc(O)cc1)C(=O)NCC(=O)N(C)[C@@H](Cc1ccccc1)C(=O)NCCO [DAMGO]
response to GiPCR agonist (GiPCR signaling [3]; [4]): concentration-dependent increase of response

Compound: O=C1c2ccccc2-c2n[nH]c3cccc1c23 [SP60125]
level of serine phosphorylation in the Gi protein precipitates (Gi1, Gi2, Gi3 proteins): attenuated
tyrosine phosphorylation levels in the Gi protein precipitates (Gi1, Gi2, Gi3 proteins): attenuated

Compound: Nc1[nH]nc2nnc(-c3c(-c4ccccc4)nn4ccccc34)cc12 [FR180204]
level of serine phosphorylation in the Gi protein precipitates (Gi1, Gi2, Gi3 proteins): attenuated
tyrosine phosphorylation levels in the Gi protein precipitates (Gi1, Gi2, Gi3 proteins): attenuated

Compound: C[S+]([O-])c1ccc(-c2nc(-c3ccncc3)c(-c3ccc(F)cc3)[nH]2)cc1 (centres unmarked) [SB203580]
level of serine phosphorylation in the Gi protein precipitates (Gi1, Gi2, Gi3 proteins): attenuated
tyrosine phosphorylation levels in the Gi protein precipitates (Gi1, Gi2, Gi3 proteins): attenuated

Compound: CD44 siRNA: siRNA for knockdown of CD44: GAACAAGGAGUCGUCAGAAACUCCA (guide GAACAAGGAGUCGUCAGAAACUCCA; listed as RNA, chemistry not given here)
effect on the inhibitory effect of rOPN on response to DAMGO and oxymethazolin (GiPCR signaling [1]; MC3T3-E1 cells, rOPN present): did not prevent; also recorded: further aggravated the defect

Compound: pertussis toxin [PTX]
cellular responses to each of the four tested agonists after PTX pre-treatment (GiPCR signaling [3]; osteoblasts from WT and OPN-/- mice, DAMGO, somatostatin, oxymethazolin, apelin): largely reduced

Compound: Cc1cc(C(C)(C)C)c(O)c(C)c1CC1=NCCN1 [oxymethazolin]
response to GiPCR agonist (GiPCR signaling [3]; [4]): concentration-dependent increase of response
